# In paper PMC4941420, “A Rational Approach for the Identification of Non-Hydroxamate HDAC6-Selective Inhibitors” (Scientific Reports, 2016):
# What was measured:
# HDAC6 = target: T1, HDAC6 (Homo sapiens, UniProt Q9UBN7); test: In vitro enzymatic assay HDAC6 (Fluor de Lys); format: biochemical; conditions: for HDAC6 % of inhibition at 100 µM / inhibition at 100 µM: mean ± SD (n=3); for inhibition at 100 µM: read-out: HDAC6 % of inhibition at 100 µM; for IC50: average of at least 2 independent experiments in duplicates ± SEM
# T1 construct: purchased Sigma Aldrich or Reaction Biology Corporation
# T1 sequence (Q9UBN7 1-1215): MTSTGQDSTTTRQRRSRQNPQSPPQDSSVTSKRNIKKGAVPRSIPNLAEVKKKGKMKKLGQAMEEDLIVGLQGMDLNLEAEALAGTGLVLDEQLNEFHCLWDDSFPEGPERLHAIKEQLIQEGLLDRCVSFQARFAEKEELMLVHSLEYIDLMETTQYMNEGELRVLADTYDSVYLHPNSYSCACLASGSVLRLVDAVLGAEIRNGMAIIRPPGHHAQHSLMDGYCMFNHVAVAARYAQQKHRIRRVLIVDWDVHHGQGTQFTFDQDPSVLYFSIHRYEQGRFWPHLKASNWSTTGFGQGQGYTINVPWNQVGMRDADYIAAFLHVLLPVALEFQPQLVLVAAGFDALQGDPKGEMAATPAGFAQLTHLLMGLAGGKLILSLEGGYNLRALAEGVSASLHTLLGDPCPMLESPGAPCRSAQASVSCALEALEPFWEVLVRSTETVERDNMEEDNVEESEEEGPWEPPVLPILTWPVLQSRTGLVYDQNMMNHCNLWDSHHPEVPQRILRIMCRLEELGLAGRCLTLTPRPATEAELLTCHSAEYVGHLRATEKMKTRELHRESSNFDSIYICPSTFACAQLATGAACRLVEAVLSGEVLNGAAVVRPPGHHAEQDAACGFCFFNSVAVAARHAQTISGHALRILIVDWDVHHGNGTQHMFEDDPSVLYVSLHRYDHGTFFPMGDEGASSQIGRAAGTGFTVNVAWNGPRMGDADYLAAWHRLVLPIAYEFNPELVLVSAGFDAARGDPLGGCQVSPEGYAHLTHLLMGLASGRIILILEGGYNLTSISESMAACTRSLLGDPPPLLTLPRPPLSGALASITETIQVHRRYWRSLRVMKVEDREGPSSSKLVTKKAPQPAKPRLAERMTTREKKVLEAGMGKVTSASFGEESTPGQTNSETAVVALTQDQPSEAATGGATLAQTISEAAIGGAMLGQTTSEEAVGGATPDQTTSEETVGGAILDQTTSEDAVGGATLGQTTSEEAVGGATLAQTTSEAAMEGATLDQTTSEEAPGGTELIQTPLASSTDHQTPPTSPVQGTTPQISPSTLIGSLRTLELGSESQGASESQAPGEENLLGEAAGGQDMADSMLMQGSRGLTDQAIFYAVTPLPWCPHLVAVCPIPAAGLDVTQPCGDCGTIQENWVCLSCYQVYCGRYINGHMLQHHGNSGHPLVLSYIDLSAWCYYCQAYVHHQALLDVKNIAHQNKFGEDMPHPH
# [1] = system: class I HDACs (HeLa nuclear extracts); test: HDAC activity of HeLa nuclear extracts (Fluor de Lys); format: biochemical, human; conditions: 100 μM, average of at least 3 independent experiments in duplicates (Table 1)
# HDAC4 = target: T2, HDAC4 (Homo sapiens, UniProt P56524); test: In vitro enzymatic assay HDAC4 (Fluor de Lys); format: biochemical; conditions: average of at least 2 independent experiments in duplicates ± SEM
# T2 construct: purchased Sigma Aldrich or Reaction Biology Corporation
# T2 sequence (P56524 whole entry): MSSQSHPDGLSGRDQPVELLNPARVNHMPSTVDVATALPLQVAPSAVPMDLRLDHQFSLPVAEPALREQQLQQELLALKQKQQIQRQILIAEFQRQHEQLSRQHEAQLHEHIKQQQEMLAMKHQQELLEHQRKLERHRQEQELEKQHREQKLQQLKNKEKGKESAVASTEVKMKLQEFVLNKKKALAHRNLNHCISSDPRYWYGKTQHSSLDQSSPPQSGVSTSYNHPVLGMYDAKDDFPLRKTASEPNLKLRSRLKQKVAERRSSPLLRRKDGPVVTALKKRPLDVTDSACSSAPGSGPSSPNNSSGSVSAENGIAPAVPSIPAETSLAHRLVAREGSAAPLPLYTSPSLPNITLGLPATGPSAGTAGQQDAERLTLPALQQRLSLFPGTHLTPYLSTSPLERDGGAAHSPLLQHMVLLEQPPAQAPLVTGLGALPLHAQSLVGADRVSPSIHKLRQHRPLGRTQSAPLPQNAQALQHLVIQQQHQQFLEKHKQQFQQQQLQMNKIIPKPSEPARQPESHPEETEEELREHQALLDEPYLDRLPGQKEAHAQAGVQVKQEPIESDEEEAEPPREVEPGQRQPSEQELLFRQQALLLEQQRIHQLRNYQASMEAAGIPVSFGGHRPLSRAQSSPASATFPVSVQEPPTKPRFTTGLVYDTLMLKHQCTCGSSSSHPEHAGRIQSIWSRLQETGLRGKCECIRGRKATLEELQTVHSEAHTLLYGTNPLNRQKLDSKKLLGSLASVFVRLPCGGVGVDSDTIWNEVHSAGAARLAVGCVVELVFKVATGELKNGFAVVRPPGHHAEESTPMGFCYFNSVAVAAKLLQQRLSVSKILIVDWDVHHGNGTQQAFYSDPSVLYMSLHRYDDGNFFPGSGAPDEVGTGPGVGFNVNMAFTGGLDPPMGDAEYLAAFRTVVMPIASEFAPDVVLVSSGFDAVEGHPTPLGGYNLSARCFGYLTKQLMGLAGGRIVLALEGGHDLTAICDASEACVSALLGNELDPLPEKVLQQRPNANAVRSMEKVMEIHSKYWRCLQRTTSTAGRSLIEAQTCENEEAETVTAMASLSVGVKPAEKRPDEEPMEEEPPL
# HDAC2 = target: T3, HDAC2 (Homo sapiens, UniProt Q92769); test: In vitro enzymatic assay HDAC2 (Fluor de Lys); format: biochemical; conditions: average of at least 2 independent experiments in duplicates ± SEM
# T3 construct: purchased Sigma Aldrich or Reaction Biology Corporation
# T3 sequence (Q92769 whole entry): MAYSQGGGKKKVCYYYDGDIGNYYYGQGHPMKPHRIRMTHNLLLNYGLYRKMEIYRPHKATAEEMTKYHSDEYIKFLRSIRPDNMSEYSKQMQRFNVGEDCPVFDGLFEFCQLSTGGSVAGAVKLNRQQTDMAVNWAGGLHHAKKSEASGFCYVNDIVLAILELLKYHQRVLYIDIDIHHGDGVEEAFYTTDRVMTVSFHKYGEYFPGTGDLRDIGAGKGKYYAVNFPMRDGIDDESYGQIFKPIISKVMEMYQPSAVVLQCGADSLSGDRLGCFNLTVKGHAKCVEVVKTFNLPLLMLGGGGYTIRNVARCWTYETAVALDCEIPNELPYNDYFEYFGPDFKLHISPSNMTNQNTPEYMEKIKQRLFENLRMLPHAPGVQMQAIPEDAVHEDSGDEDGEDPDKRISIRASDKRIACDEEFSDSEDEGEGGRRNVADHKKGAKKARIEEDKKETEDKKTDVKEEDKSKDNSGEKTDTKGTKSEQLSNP
# HDAC8 = target: T4, HDAC8 (Homo sapiens, UniProt Q9BY41); test: In vitro enzymatic assay HDAC8 (Fluor de Lys); format: biochemical; conditions: average of at least 2 independent experiments in duplicates ± SEM
# T4 construct: purchased Sigma Aldrich or Reaction Biology Corporation
# T4 sequence (Q9BY41 1-377): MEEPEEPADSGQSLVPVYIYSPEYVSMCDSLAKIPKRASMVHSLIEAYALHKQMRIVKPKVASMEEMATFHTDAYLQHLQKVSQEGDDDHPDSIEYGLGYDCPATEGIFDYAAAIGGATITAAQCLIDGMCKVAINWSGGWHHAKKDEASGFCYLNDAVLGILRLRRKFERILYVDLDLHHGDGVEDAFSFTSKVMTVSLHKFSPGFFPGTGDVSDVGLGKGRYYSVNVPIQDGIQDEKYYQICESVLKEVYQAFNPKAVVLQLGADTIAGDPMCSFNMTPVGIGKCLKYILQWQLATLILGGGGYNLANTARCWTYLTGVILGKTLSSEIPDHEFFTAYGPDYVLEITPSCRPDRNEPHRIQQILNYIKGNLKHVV
# [2] = Solubility remarks during testing; format: physicochemical; conditions: tested at 100 µM in HDAC assay buffer
smiles,measurement,setting,value
CC(C)C12CC3CC(CC(C(=O)NN)(C3)C1)C2 [AF-1],HDAC6 % of inhibition at 100 µM,HDAC6,5.2 ± 1.5%
CC1(C)Cc2ccccc2C2=C/C(=N/O)C(=O)N21 [AG-1],HeLa % of inhibition at 100 μM,[1],38.2 ± 1.1%
same,IC50,HDAC4,111 ± 3.5 µM
same,inhibition at 100 µM,HDAC6,83.8 ± 2.3%
same,selectivity index (SI) with respect to HDAC2,HDAC6; HDAC6 versus HDAC2,> 50
same,IC50,HDAC6,21.7 ± 1.2 µM
same,IC50,HDAC2,> 1000 µM
same,IC50,HDAC8,0.3 ± 0.005 µM
COc1cc(/C=C2/SC(N)=NC2=O)ccc1OCc1ccc(Cl)cc1Cl [AG-2],HDAC6 % of inhibition at 100 µM,HDAC6,-2.8 ± 9.7% Self-fluorescence
C=CCn1c2ccccc2c2nnc(SC(CC)C(=O)Nc3ccc(S(N)(=O)=O)cc3)nc21 (stereo not shown) [AG-3],HDAC6 % of inhibition at 100 µM,HDAC6,16.3 ± 0. %
CC(C)(C)CC(C)(C)c1ccc(OCC(=O)NN)c([N+](=O)[O-])c1 [AG-4],HDAC6 % of inhibition at 100 µM,HDAC6,5.5 ± 2.9%
N/N=C1\CCCc2c1[nH]c1ccc(C(=O)NN)cc21 [AH-1],HDAC6 % of inhibition at 100 µM,HDAC6,26.9 ± 6.1%
Cc1ccccc1COc1ccc(/C=N/NC(N)=S)cc1 [AH-2],HDAC6 % of inhibition at 100 µM,HDAC6,12.1 ± 1.6%
CC(C)c1ccc(OCc2cccc(C(=O)NN)c2)cc1 [AK-1],HDAC6 % of inhibition at 100 µM,HDAC6,18.3 ± 0.1%
Cc1nn(Cc2ccc(C(=O)NN)cc2)c(C)c1Cl [AK-2],HeLa % of inhibition at 100 μM,[1],10.0 ± 2.0%
same,IC50,HDAC4,> 300 µM
same,inhibition at 100 µM,HDAC6,58 ± 1.5%
same,IC50,HDAC6,47.9 ± 4.7 µM
same,IC50,HDAC2,> 200 µM
same,IC50,HDAC8,140 ± 11.5 µM
Cn1cc(Br)c(C(=O)NN)n1 [AK-3],HDAC6 % of inhibition at 100 µM,HDAC6,0.1 ± 2.3%
NNC(=O)C12CC3CC(C1)CC(n1cnc(Cl)n1)(C3)C2 [AK-4],HDAC6 % of inhibition at 100 µM,HDAC6,3.0 ± 0.3%
COc1ccccc1OCc1ccc(C(=O)NN)cc1 [AK-5],HeLa % of inhibition at 100 μM,[1],5.8 ± 1.3%
same,IC50,HDAC4,> 300 µM
same,inhibition at 100 µM,HDAC6,64.4 ± 1.3%
same,IC50,HDAC6,45.6 ± 1.5 µM
same,IC50,HDAC2,> 200 µM
same,IC50,HDAC8,130 ± 9 µM
NNC(=O)c1cccc(COc2cc(Cl)ccc2Cl)c1 [AK-6],HDAC6 % of inhibition at 100 µM,HDAC6,15.3 ± 0.5%
NNC(=O)c1cc2nc(-c3cccs3)cc(C(F)(F)F)n2n1 [AK-7],HDAC6 % of inhibition at 100 µM,HDAC6,31.1 ± 0.5% Self-fluorescence
CC1(C)Cc2c(c(N3CCOCC3)nc3sc(C(=O)NN)cc23)CO1 [AK-8],HDAC6 % of inhibition at 100 µM,HDAC6,32.5 ± 8.8%
same,solubility remark in HDAC6 screening,[2],Solubility issues
CCOc1cc(/C=N/O)cc(Cl)c1OC [AK-9],HDAC6 % of inhibition at 100 µM,HDAC6,8.0 ± 4.6%
CC(C)Oc1cccc(C(=O)NN)c1 [AK-10],HDAC6 % of inhibition at 100 µM,HDAC6,13.9 ± 17.9%
Cc1nn(Cc2ccc(C(=O)NN)o2)c(C)c1Cl [AK-11],HDAC6 % of inhibition at 100 µM,HDAC6,5.3 ± 19.9%
Cc1c(C)n(Cc2ccccc2)c2ccc(C(=O)NN)cc12 [AK-12],HDAC6 % of inhibition at 100 µM,HDAC6,28.2 ± 16.7%
NNC(=O)CC12CC3CC(C1)CC(n1ncnn1)(C3)C2 [AK-13],HDAC6 % of inhibition at 100 µM,HDAC6,23.7 ± 9.3%
